Data as given in publication PMC11819603, “Development of a reliable, sensitive, and convenient assay for the discovery of new eIF5A hypusination inhibitors” (PLOS ONE, 2025).

Experiments:
[1] = tested on: eIF5A hypusination in MCF7 cells; test: eIF5A hypusination in intact MCF7 cells, Western blot; assay type: cell-based, human; conditions: 24 h
Experimental: (§1) We tested the ability of the GC7 analogs to inhibit hypusination in intact cells. MCF-7 cells (Fig 5B), a classical model of breast cancer cell line, and HT29 cells (Fig 5C), a cell model of colorectal cancer, were treated with 40 μM of GC7, 1, 2, 3, and 4 for 24h. Cells were lysed and analyzed by Western blot. As observed, none of the molecules modified eIF5A expression. […] GC7 analogs inhibited hypusination from 35 to 55%.
The human breast cancer cell line MCF7 (HTB-22 ATCC) and colorectal adenocarcinoma HT29 (HTB-38 ATCC) were cultured in DMEM (Gibco) supplemented with 10% FBS (Dutscher), 10 U/mL penicillin, and […] streptomycin. 1 mM of aminoguanidine was added to the medium to inhibit the degradation of GC7 and polyamines by amine oxidase from the serum and the production of reactive oxygen species. Cells were maintained at 37°C, 5% CO2 in a humid atmosphere.
(§2) After treatment, cells were washed with ice-cold PBS and lysed in RIPA Buffer (50 mM Tris pH 7.5, 150 mM NaCl, 0.1% SDS, 0.5% Na Deoxycholate, 5 mM NaF, 2.5 mM Na4P2O7, 1% NP4O) containing a protease inhibitor cocktail (complete Roche). 10 μg of proteins were separated by SDS PAGE and transferred to a PVDF membrane (Immobilon-P Millipore). The membranes were probed with the appropriate primary antibody that was detected by horseradish peroxidase-conjugated secondary antibody (Jackson Immunoresearch) and visualized by chemiluminescence (ECL Amersham RPN 3244) using a Fuji LAS-4000 imager. ImageJ® software was used to quantify band intensity and the ratios of proteins of interest were normalized to a loading control. Full-length Western blots are provided in the supplementary data (S19, S20 Figs).

[2] = tested on: eIF5A hypusination in HT29 cells; test: eIF5A hypusination in intact HT29 cells, Western blot; assay type: cell-based; conditions: Homo sapiens, HT-29, 24 h
Experimental: as §1
The human breast cancer cell line MCF7 (HTB-22 ATCC) and colorectal adenocarcinoma HT29 (HTB-38 ATCC) were cultured in DMEM (Gibco) supplemented with 10% FBS (Dutscher), 10 U/mL penicillin, and 10 mg/mL streptomycin. […]
as §2, with “10 μg of proteins were separated by SDS PAGE and transferred to a PVDF membrane (Immobilon-P Millipore).” left out, “Full-length Western blots are provided in the supplementary data (S19, S20 Figs).” left out

DHPS [3] = biological target: T1, DHPS (Homo sapiens, UniProt P49366); test: Hyp'Assay without DOHH: deoxyhypusination of eIF5A revealed with Hpu98 antibody; assay type: biochemical; conditions: 5 μM spermidine
T1 construct: host or cells: E. coli BL21 (DE3)
T1 sequence (P49366 1-369): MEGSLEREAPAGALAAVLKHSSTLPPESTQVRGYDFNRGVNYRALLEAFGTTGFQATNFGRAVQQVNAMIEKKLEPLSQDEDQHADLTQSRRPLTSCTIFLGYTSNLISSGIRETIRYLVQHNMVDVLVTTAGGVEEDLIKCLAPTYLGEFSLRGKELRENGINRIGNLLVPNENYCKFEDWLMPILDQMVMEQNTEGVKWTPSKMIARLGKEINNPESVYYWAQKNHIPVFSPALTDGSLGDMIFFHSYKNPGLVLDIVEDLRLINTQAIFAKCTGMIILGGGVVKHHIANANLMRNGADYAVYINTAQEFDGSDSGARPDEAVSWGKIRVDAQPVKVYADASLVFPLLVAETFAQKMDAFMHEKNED
Source text: To address this issue, we compared the ability of GC7 to inhibit DHPS or DOHH by adding GC7 during the first step of the Hyp’Assay; when DHPS mediates the deoxyhypusination reaction (Fig 2A), or only during the second step, when DOHH hydroxylate deoxyhypusinated eIF5A. […] This confirms the specificity of GC7 towards DHPS. When finding new hypusination inhibitors adding them during the first or the second step of the Hyp’Assay will allow us to determine if the inhibition affects DHPS or DOHH. Another way to discriminate between DHPS or DOHH inhibitors would be to use Hpu98, an antibody that recognized both hypusinated and deoxyhypusinated eIF5A, instead of Hpu24, which is specific for hypusinated eIF5A [18]. […] We performed a new Hyp’Assay by omitting DOHH in the reaction mix and using the Hpu98 antibody. First, we performed a dose response experiment with spermidine at pH: 8.0 and 9.0 (Fig 3E). The Hyp’Assay allows the detection of deoxyhypusinated eIF5A in a spermidine-dependent manner. Under these conditions, deoxyhypusination was equally efficient at both pH tested. […] We also tested the ability of GC7 (Fig 3F) and CPX or EDTA (Fig 3G) to inhibit DHPS. […] This provided us with another method to distinguish between DHPS and DOHH inhibitors.
(§3) The cell-free reaction described in 4.4 is performed in triplicates in a 96-wells plate (MaxiSorp, ThermoFisher) in the presence of 3 μg of eIF5A, 2 μg of DHPS, and 2 μg of DOHH by well. The reaction product, hypusinated eIF5A, is adsorbed onto the plate overnight at 4°C. The plate is washed (100 μL/well) thrice with PBS-T (PBS– 0.05% Tween20), then saturated with 1% non-fat dry milk in PBS-T for 2 h at room temperature. The plate is washed thrice with PBS-T and incubated overnight at 4°C with the anti-hypusine antibody (1:2000 in saturation buffer, 50 μL/well). The next day and after 5 washes with PBS-T, HRP-coupled anti-rabbit secondary antibody diluted 1:5000 in saturation buffer (50 μL/well) is added for 2 h at room temperature.

DHPS [4] = biological target: T1, DHPS; test: Hyp'Assay: cell-free eIF5A hypusination in 96-well plates (recombinant eIF5A, DHPS, DOHH; anti-hypusine antibody Hpu24), substance present in the DHPS step; assay type: biochemical
Experimental: The principle of the Hyp’Assay (Fig 2A) is to perform eIF5A hypusination reaction in 96-well plates, allow eIF5A to adsorb to the plate, incubate with an anti-hypusine antibody and a secondary antibody conjugated to HRP and reveal hypusination using TMB as a substrate.
[…] Then 10 μL containing 1 μg of DOHH with 10 μM Fe^2+ (H8FeN2O8S2^. 6H2O) were added. After 1 h proteins were analyzed by Western Blot using antibodies toward DHPS, DOHH, Hypusine, and eIF5A.
as §3

## N=C(N)NCCCCCCCN [GC7, N1-guanyl-1,7-diaminoheptane]
[1]; 40 μM, Ctrl 100, 4 experiments
  hypusinated eIF5A, Western blot quantification, Mean (Figure 5B): 20.45
[1]; Homo sapiens
  inhibition at 40 µM: 80%
[2]
  inhibition at 40 µM: 80%
DHPS [3]
  ability to inhibit deoxyhypusination: efficient in inhibiting deoxyhypusination
DHPS [3]; CTRL 100,0, inhibitor concentration not given
  Relative deoxyhypusination of eIF5A, Mean (quantification from Figure 3F, 3G): 7,531 a.u
DHPS [4]; 5 μM spermidine
  concentration at which inhibition was complete: 1 µM
  concentration at which inhibition was detectable: 0.01 µM
DHPS [4]; 100 μM spermidine
  concentration at which the inhibitory effect began: 0.1 µM
  concentration of maximal inhibitory effect: 10 µM
DHPS [4]; GC7 added during the DHPS step, 5 μM spermidine, CTRL 100,0
  Relative hypusination of eIF5A, Mean (quantification from Figure 3D): 4,227 a.u
DHPS [4]; Spermidine 5 µM, GC7 1 (µM)
  hypusination signal, Mean (quantification from Figure 3A): 54.02
DHPS [4]; Spermidine 5 µM, GC7 10 (µM)
  hypusination signal, Mean (quantification from Figure 3A): 19.57
DHPS [4]; Spermidine 5 µM, GC7 100 (µM)
  hypusination signal, Mean (quantification from Figure 3A): 16.79
DHPS [4]; Spermidine 5 µM, GC7 1000 (µM)
  hypusination signal, Mean (quantification from Figure 3A): 0.5077
DHPS [4]; Spermidine 5 µM, GC7 10000 (µM)
  hypusination signal, Mean (quantification from Figure 3A): 0
DHPS [4]; Spermidine 100 µM, GC7 1 (µM)
  hypusination signal, Mean (quantification from Figure 3A): 100
DHPS [4]; Spermidine 100 µM, GC7 10 (µM)
  hypusination signal, Mean (quantification from Figure 3A): 95.15
DHPS [4]; Spermidine 100 µM, GC7 100 (µM)
  hypusination signal, Mean (quantification from Figure 3A): 91.8
DHPS [4]; Spermidine 100 µM, GC7 1000 (µM)
  hypusination signal, Mean (quantification from Figure 3A): 51.9
DHPS [4]; Spermidine 100 µM, GC7 10000 (µM)
  hypusination signal, Mean (quantification from Figure 3A): 0.07615
DHPS [4]; added during the first step (DHPS), 5 μM spermidine
  effect on hypusination: total inhibition of hypusination
DHPS [4]; at 1 µM, 5 µM spermidine (reviewer's reading of Fig. 3)
  inhibition at 1 µM: ~95%
